Measurements taken from patent US11572590B2, “Methods for evaluating tumor cell spheroids using 3D microfluidic cell culture device” (Dana-Farber Cancer Institute, Inc., priority 2017, dated 2023).
Where two headings read alike, the source gives them in different places.

Columns and labels:
Assay in all cases: SelectScreen Kinase Profiling, single point inhibition and IC50 for off-target kinases
Assay type in all cases: biochemical
off-target kinases [1] = target: T1, off-target kinases (Homo sapiens, UniProt Q9UQB9); conditions: AURKC (Aurora C), ZLYTE, ATP Km app
T1 sequence (Q9UQB9 1-309): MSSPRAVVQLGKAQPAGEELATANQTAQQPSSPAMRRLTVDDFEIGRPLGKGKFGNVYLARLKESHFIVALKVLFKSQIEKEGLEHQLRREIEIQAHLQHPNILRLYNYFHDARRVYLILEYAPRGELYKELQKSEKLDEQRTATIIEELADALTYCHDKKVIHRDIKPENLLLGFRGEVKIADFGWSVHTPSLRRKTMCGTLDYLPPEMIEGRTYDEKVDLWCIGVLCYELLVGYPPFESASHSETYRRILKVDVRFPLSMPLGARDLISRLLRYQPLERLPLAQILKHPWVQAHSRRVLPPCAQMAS

off-target kinases [2] = target: T2, off-target kinases (Homo sapiens, UniProt O14936); conditions: CASK, LanthaScreen Binding
T2 sequence (O14936 1-926): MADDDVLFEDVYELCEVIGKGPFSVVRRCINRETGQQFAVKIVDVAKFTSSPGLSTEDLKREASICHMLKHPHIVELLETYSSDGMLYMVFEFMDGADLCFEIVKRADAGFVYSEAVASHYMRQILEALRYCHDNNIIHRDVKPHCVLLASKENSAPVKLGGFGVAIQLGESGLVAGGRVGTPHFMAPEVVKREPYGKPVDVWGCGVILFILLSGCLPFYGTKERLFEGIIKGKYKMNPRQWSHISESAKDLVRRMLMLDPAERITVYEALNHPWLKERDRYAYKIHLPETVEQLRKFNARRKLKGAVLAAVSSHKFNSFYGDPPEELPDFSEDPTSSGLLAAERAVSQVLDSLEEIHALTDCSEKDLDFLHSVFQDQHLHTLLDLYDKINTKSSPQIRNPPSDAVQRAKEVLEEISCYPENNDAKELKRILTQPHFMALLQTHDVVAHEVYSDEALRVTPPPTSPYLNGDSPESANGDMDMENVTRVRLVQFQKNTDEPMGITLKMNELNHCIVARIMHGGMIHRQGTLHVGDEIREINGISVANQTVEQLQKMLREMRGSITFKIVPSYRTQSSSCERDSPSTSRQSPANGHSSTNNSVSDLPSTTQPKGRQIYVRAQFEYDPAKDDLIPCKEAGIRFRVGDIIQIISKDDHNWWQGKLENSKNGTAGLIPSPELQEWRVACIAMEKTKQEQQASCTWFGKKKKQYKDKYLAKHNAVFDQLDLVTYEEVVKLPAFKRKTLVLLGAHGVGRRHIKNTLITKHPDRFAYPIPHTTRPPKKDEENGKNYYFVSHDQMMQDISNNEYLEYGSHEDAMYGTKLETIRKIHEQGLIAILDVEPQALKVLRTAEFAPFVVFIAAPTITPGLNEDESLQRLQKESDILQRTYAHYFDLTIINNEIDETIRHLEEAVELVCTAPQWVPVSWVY

off-target kinases [3] = target: off-target kinases (Homo sapiens, UniProt Q9Y572); conditions: RIPK3, LanthaScreen Binding
off-target kinases [4] = target: off-target kinases (Homo sapiens, UniProt P22455); conditions: FGFR4, ZLYTE, ATP Km app
Sequence of off-target kinases (Homo sapiens, UniProt P22455) (P22455 22-802): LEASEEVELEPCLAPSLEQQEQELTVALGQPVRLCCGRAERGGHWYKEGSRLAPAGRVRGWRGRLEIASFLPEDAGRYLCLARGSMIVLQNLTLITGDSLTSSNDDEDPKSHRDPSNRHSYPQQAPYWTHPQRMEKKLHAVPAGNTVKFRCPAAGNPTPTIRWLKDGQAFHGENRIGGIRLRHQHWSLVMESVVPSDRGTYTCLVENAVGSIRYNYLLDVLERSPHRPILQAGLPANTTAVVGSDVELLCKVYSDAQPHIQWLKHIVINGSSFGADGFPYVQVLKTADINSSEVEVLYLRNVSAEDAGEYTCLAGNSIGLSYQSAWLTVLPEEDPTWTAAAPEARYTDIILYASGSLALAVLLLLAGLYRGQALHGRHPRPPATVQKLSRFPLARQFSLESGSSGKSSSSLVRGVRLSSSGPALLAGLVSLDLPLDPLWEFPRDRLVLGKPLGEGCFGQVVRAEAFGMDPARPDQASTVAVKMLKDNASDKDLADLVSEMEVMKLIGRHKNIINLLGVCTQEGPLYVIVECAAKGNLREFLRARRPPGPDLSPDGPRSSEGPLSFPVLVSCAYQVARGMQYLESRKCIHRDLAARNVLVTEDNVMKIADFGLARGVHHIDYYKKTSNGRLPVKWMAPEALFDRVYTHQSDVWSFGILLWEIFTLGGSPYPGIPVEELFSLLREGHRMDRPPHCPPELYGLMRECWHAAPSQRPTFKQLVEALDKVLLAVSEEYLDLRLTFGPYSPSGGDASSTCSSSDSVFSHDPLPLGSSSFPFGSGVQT

Sequence of off-target kinases (Homo sapiens, UniProt Q9Y572) (Q9Y572 whole entry): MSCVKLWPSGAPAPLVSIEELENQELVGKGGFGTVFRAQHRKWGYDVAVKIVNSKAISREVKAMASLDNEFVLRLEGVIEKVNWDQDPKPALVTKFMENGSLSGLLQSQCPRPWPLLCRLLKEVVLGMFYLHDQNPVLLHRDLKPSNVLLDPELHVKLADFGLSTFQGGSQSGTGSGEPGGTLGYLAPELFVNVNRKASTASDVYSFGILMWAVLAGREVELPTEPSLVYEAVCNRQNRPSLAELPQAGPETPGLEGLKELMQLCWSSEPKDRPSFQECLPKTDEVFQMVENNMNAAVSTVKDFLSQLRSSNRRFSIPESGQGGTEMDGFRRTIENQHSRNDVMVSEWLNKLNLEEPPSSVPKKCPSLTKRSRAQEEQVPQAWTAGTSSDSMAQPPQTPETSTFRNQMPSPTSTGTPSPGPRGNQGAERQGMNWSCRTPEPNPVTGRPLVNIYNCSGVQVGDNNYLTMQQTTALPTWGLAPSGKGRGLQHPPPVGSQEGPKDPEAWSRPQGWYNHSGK

In the case of `N#Cc1cc(-c2ncnc(Nc3ccc(N4CCN(C5COC5)CC4)cc3)n2)ccc1OC1CCOCC1` [Compound 1, 5-(4-((4-(4-(oxetan-3-yl)piperazin-1-yl)phenyl)amino)-1,3,5-triazin-2-yl)-2-((tetrahydro-2H-pyran-4-yl)oxy)benzonitrile], the inhibition (off-target kinases [1]; read-out: % Inhibition 1) is reported as 23%, the inhibition (off-target kinases [1]; read-out: % Inhibition 2) is reported as 23% and the inhibition (off-target kinases [1]; read-out: % Inhibition Avg) is reported as 23%. The inhibition (off-target kinases [2]; read-out: % Inhibition 1) was 6%, the inhibition (off-target kinases [2]; read-out: % Inhibition 2) was 10% and the inhibition (off-target kinases [2]; read-out: % Inhibition Avg) was 8%. For the same compound, the inhibition (off-target kinases [3]; read-out: % Inhibition 1) was -1%, the inhibition (off-target kinases [3]; read-out: % Inhibition 2) was 1% and the inhibition (off-target kinases [3]; read-out: % Inhibition Avg) was 0%. For the same compound, the inhibition (off-target kinases [4]; read-out: % Inhibition 1) was 7%, the inhibition (off-target kinases [4]; read-out: % Inhibition 2) was -2% and the inhibition (off-target kinases [4]; read-out: % Inhibition Avg) was 3%.
